# Assay results: PMC11371747, “The role of l-leucovorin uptake and metabolism in the modulation of 5-fluorouracil efficacy and antifolate toxicity” (Frontiers in Pharmacology, 2024)
# Where two headings read alike, the source gives them in different places.
# Experiments:
# [1] = biological target: T1, folate receptor α (FRα) (Homo sapiens, UniProt P15328); test: Intact cell competitive binding assay, displacement of [3H]-folic acid from FRα in KB cells
# T1 construct: endogenous in cells; host or cells: KB cells (FRα++)
# Protocol: In order to determine whether the LV isomers were substrates for either folate receptor α (FRα), RFC and/or PCFT, we used model systems with established overexpression of these receptors or transporters ([Westerhof et al., 1995a]; [Westerhof et al., 1995b]; [Lasry et al., 2008]; [Van der Heijden et al., 2009]).
# For FRα we used KB cells ([Westerhof et al., 1995b]). An intact cell binding assay for competitive binding was performed as described previously ([Westerhof et al., 1995a]). Briefly, cells were washed with Hanks balanced salt solution and 6 mM glucose (HBSS, pH 7.4), suspended in 1 mL of this solution (1*10^6 for KB cells) and incubated at 4°C for 15 min with 100 pmol [^3H]-folic acid [(^3H)-FA], in the presence and absence of unlabelled folic acid or LV stereoisomers. Cells were collected by centrifugation and analysed for radioactivity. Relative affinities for FRα were defined as the inverse ratio of compound to displace 50% of radioactive folic acid from FRα. The relative affinity of folic acid was set at 1.
# [2] = system: H28 cells; test: Growth inhibition, SRB assay, H28 (MPM); type: cell-based, human; conditions: for IC50: H28, SRB, read-out: IC50, 72 h drug exposure
# Protocol: (§1) Briefly, cells were seeded in triplicate in 96-well plates at their pre-established optimal density (CHO cells: 2,500 cells/100 μL; WiDr and HT29: 3,500 cells/100 μL; WiDr-LF/LV, LS174T: 5,000 cells/100 μL; CaCo2, CaCo2-LF/LV, H292, H28 and MSTO-211H: 6,000 cells/100 μL; H460, SW948 and SW1398: 7,000 cells/100 μL) and were allowed to attach for ∼ 24 h at 37°C in 5% CO2 and 100% humidified incubator. Thereafter, 100 μL of drug dilution without LV, or with 5 μM l-LV/5 μM d-LV/10 μM dL-LV (or any LV alone) were added. Cells were allowed to grow for 72 h at 37°C in 5% CO2 and 100% humidity. The t = 0 h control plate consisted of cells plated on the same day as the other cells, but after 24 h at 37°C in 5% CO2 and 100% humidity, only 100 μL medium was added and the cells were fixed immediately with 50% trichloroacetic acid (TCA) in milliQ water (25 μL per well) and put at 4°C for at least 1 h. Plates were washed five times with water and dried. Cells were stained with the SRB protein dye (0.4% (w/v) in 1% acetic acid. Excess dye was washed away four times with 1% acetic acid and plates were dried again. 200 μL of Tris (10 mM Tris (hydroxymethyl)-aminomethane in MQ) was added and optical density (OD) was read at 492 nm after mixing 2–3 min on a plate shaker.
# [3] = system: MSTO-211H cells; test: Growth inhibition, SRB assay, MSTO-211H (MPM); type: cell-based, human; conditions: for IC50: SRB, read-out: IC50, 72 h drug exposure
# Protocol: as §1
# [4] = system: CHO/C5 cells; test: Growth inhibition, SRB assay, CHO/C5 (RFC-deficient); type: cell-based, Chinese hamster
# Protocol: as §1
# [5] = system: CHO/C5-MOCK cells; test: Growth inhibition, SRB assay, CHO/C5-MOCK (empty vector); type: cell-based, Chinese hamster
# Protocol: as §1
# [6] = system: CHO/C5-PCFT cells; test: Growth inhibition, SRB assay, CHO/C5-PCFT (PCFT-transfected); type: cell-based, Chinese hamster
# Protocol: as §1
# [7] = system: AA8 cells; test: Growth inhibition, SRB assay, AA8 (parental CHO); type: cell-based, Chinese hamster; conditions: for IC50: AA8 parental CHO
# Protocol: as §1
# [8] = biological target: T2, thymidylate synthase (TS) (Homo sapiens, UniProt P04818); test: TS in situ inhibition assay (TSIA) in colon cancer cells; type: cell-based; conditions: WiDr, 4 h, antifolate alone
# T2 construct: The principle of this assay is the measurement of TS enzymatic activity in intact cells; endogenous in cells; host or cells: colon cancer cell lines (WiDr, WiDr-LF, SW1398, LS174T and others)
# Text: The principle of this assay is the measurement of TS enzymatic activity in intact cells. Intact cells will readily internalize radioactively labelled [5-^3H]-deoxycytidine, which will be rapidly converted by deoxycytidine kinase (dCK) to [5-^3H]-dCMP and subsequently deaminated to [5-^3H]-dUMP, which will then serve as a substrate in the TS catalysed reaction to dTMP and ^3H2O; the quantity of ^3H2O formed over time is a measure of intracellular TS activity. […] This is because dCK has a higher, cell cycle independent activity than thymidine kinase 1, which is a cell cycle dependent enzyme. For this purpose, cancer cells were cultured in six wells plates at 2.5 × 10^5 cells/2 mL/well for 24 h. Thereafter, cells were exposed to drugs with or without the LV formulations at the indicated concentrations for 4 h. 2 h before the end of the incubation period [5-^3H]-2′-deoxycytidine (final concentration 1 µM) was added to the cells. […] In most cell lines we quantified dCK activity and dCK mRNA levels.
# [9] = Cricetulus griseus, antifolate alone
# T1 sequence (P15328 25-257): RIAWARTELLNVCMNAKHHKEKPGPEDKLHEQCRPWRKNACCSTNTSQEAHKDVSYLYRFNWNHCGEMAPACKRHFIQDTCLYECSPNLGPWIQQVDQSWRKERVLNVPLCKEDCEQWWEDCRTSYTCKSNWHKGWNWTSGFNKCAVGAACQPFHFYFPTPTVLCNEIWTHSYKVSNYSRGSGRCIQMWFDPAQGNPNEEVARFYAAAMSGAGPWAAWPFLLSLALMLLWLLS
# T2 sequence (P04818 2-313 limits assumed): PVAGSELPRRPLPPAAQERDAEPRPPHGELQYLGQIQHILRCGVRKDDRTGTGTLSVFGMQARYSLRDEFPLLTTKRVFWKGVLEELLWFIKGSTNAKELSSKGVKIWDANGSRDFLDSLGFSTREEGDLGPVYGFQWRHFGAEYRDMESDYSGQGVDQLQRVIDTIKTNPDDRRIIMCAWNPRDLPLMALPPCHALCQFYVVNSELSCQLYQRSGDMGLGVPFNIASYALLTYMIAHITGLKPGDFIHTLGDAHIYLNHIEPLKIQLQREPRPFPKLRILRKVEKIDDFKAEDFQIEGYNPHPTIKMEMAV
compound,measurement,setting,value
"C#CCC(Cc1cnc2nc(N)nc(N)c2n1)c1ccc(C(=O)N[C@@H](CCC(=O)O)C(=O)O)cc1 (stereo partly drawn) [PLX, pralatrexate]",Molar excess over folic acid required for displacement of [3H]-FA binding from FRα,[1],> 100 fold
same,Relative affinity for FRα,"[1]; 100 pmol [3H]-FA, inverse ratio of amount of drug displacing 50% of [3H]-FA, FA set to 1",0.0035
same,IC50,[2]; antifolate + 5 µM l-LV,14.6 µM
same,Relative protection by 5 µM l-LV,"[2]; H28, ratio IC50 antifolate + LV / IC50 antifolate",1834 ± 108
same,IC50,"[2]; Homo sapiens, NCI-H28, 72 h, antifolate alone",0.011 ± 0.0006 µM
same,IC50,"[3]; Homo sapiens, 72 h, antifolate alone",0.0024 ± 0.0001 µM
same,IC50,[3]; antifolate + 5 µM l-LV,3.34 µM
same,Relative protection by 5 µM l-LV,[3]; ratio IC50 antifolate + LV / IC50 antifolate,"1,601 ± 275"
same,IC50,[4]; [9],9.5 µM
same,IC50,[4]; antifolate + 5 µM l-LV,48.3 µM
same,IC50,[5]; [9],13.1 µM
same,IC50,[5]; antifolate + 5 µM l-LV,> 100 µM
same,IC50,[6]; [9],6.8 µM
same,IC50,[6]; antifolate + 5 µM l-LV,87.5 µM
same,"Protection by l-LV, increase of the IC50 value","[7]; AA8 cells, 5 µM l-LV",965 fold
same,IC50,[7]; antifolate + 5 µM l-LV,3.67 µM
same,IC50,[7]; [9],0.0038 µM
same,IC50,[8],0.0177 ± 0.0047 µM
